Data from patent EP3628659A1, “SELENOESTER-CONTAINING COMPOUNDS FOR USE IN THE TREATMENT OF MICROBIAL INFECTIONS OR COLORECTAL CANCER” (Consejo Superior De Investigaciones Científicas, priority 2018, dated 2020).

Columns and labels:
[1] = Cytotoxicity assay (MTT) in non-tumoral MRC-5 cells; type: cell-based; conditions: human, IC50 class, non-tumoral cell line; for IC50 at 24 h: MRC-5 embryonal lung fibroblast cells (non-tumoral)
Description: Cytotoxicity assays in human colonic adenocarcinoma cell lines Colo 205 doxorubicin-sensitive (ATCC-CCL-222) and Colo 320/MDR-LRP multidrug resistant overexpressing ABCB1 (MDR1)-LRP (ATCC-CCL-220.1) were performed following the procedure described by Gajdács et al, 2017, Bioorg Med Chem Lett. 27(4): 797-802. The effects of increasing concentrations of selenium compounds on cell growth were tested in 96-well flat-bottomed microtiter plates. The selectivity of the action towards cancer cells was assessed through the evaluation of cytotoxic activity in a non-tumoral cell line, the MRC-5 human embryonal lung fibroblast cell lines (ATCC CCL-171), as described in Gajdács et al, 2017, Bioorg Med Chem Lett. 27(4): 797-802.
All cell lines were purchased from LGC Promochem, Teddington, UK. The colonic cells were cultured in RPMI 1640 medium supplemented with 10% heat-inactivated fetal bovine serum, 2 mM L-glutamine, 1 mM Na-pyruvate and 100 mM Hepes. The cell lines were incubated at 37°C, in a 5% CO2, 95% air atmosphere. The semi-adherent human colon cancer cells were detached with Trypsin-Versene (EDTA) solution for 5 min at 37°C. Alternatively, MRC-5 cells was cultured in Eagle's Minimal Essential Medium (EMEM, containing 4.5 g/L glucose) supplemented with a non-essential amino acid mixture, a selection of vitamins and 10% heat-inactivated fetal bovine serum. The cell lines were incubated at 37°C, in a 5% CO2, 95% air atmosphere.
The compounds were diluted in a volume of 100 µL of medium. The two-fold serial dilutions of selenocompounds were prepared in 100 µL of RPMI 1640, horizontally. The semi-adherent colonic adenocarcinoma cells were treated with Trypsin-Versene (EDTA) solution. They were adjusted to a density of 2×10^4 cells in 100 µL of RPMI 1640 medium, and were added to each well, with the exception of the medium control wells. The final volume of the wells containing selenocompounds and cells was 200 µL.
The culture plates were incubated at 37°C for 24 h; at the end of the incubation period, 20 µL of MTT (thiazolyl blue tetrazolium bromide, Sigma) solution (from a stock solution of 5 mg/mL) were added to each well. After incubation at 37°C for 4 h, 100 µL of sodium dodecyl sulfate (SDS) (Sigma) solution (10% in 0.01 M HCI) were added to each well and the plates were further incubated at 37°C overnight. Cell growth was determined by measuring the optical density (OD) at 540/630 nm with Multiscan EX ELISA reader (Thermo Labsystems, Cheshire, WA, USA). Inhibition of the cell growth was determined according to the formula below: […] = 100−[(OD sample−OD medium control)/(OD cell control−OD medium control)] × 100 [formula]
Results are expressed in terms of IC50, defined as the inhibitory dose that reduces the growth of the cells exposed to the tested compounds by 50%. Regarding the selectivity, the selectivity indexes (SI) were calculate, being SI the quotient of the IC50 in non-tumoral cells (MRC-5) and the respective cancer cell (Colo-205 or Colo-320). Compound is considered moderately selective when SI < 6 and ≥ 3; and strongly selective when SI ≥ 6.

[2] = test system: Staphylococcus aureus 25923 ATCC; assay: MIC determination (CLSI), S. aureus 25923 ATCC; type: cell-based; conditions: MIC class
Description: (§1) The effects exerted by different concentrations of the compounds on bacterial growth in Staphylococcus aureus 25923 ATCC, Staphylococcus aureus multidrug resistant 272123 clinical isolate (MRSA), Escherichia coli AG100 or Escherichia coli AG100 A were tested in 96-well plates. The MIC of selenocompounds was determined according to Clinical and Laboratory Standard Institute (CLSI) guidelines. The solvent used (DMSO) had no antibacterial effect. Alternatively, the MICs of oxacillin of the compounds in MRSA HEMSA 5 were determined by a broth microdilution method in cation-adjusted Mueller-Hinton Broth (MHB II) according to the recommendations of the CLSI. Results were recorded after a 20- or 24-hour incubation at 37°C.

[3] = test system: Staphylococcus aureus multidrug resistant 272123 clinical isolate (MRSA); type: cell-based; conditions: MIC class
Description: as §1

Escherichia coli AG100 = assay: MIC determination (CLSI), E. coli AG100; type: cell-based; conditions: MIC class
Description: as §1

Steinernema feltiae = assay: Nematicidal activity (viability count), Steinernema feltiae; type: in vivo; conditions: IC50 class, tested at 50, 100, 150 and 200 µM, viability at 24 h
Description: The compounds were tested for their antifungal and nematicidal properties against the fungi Candida albicans and Saccharomyces cerevisiae, and against the nematode Steinernema feltiae.
The soil nematodes S. feltiae were purchased from Sautter and Stepper GmbH (Ammerbuch, Germany) and stored at 4 °C in the dark. Before each experiment, fresh samples of nematodes were purchased and stored in the fridge upon arrival and used for a maximum of six days. To perform the assay, 200 mg of nematodes was reconstituted in 50 mL of phosphate buffered saline (PBS) (pH = 7.4) to form a homogenous suspension to revive the nematodes. Afterwards, the individual suspensions were allowed to rest at room temperature. The sedimentation was avoided with occasional shaking in moderate light and at room temperature (25 °C) for 30 min. Viability of the nematodes was determined by counting the live and dead nematodes under a light microscope (TR 200, VWR International, Leuven, Belgium) at four-fold magnification. An initial viability value of more than 90 percent was considered necessary to perform the experiments.
Sample solutions were added into the wells of a 96-well plate to achieve at final concentrations of 50,100, 150, and 200 µM. Afterwards, 10 µL of nematode suspension was added to each well and the final volume in each well was adjusted to 100 µL with phosphate buffered saline (PBS) (pH = 7.4). PBS was used in the negative control and ethanol in the positive control. Viability was determined at 0 h and 24 h by counting the live and dead nematodes, whereby 50 µL of lukewarm water (40 °C) were added to each well to stimulate the nematodes for the 24 h reading. Each experiment was performed independently in triplicate and on three different occasions (n = 9).
For the three organisms considered (C. albicans, S. cerevisiae and S. feltiae), the inhibitory concentration 50% (IC50) is defined as the concentration that inhibits the viability of the respective organism to a 50% of the viability determined for the negative control.

Structure (SMILES)	IC50 at 24 h [1]	Antibacterial activity Against S. aureus 25923 ATCC [2]	Antibacterial activity Against S. aureus MRSA 272123 [3]	Antibacterial activity Against E. coli AG100 (Escherichia coli AG100)	IC50 (Steinernema feltiae)	CC50 ([1]; mrc-5 cells)
N#CC[Se]C(=O)c1ccc(C(=O)[Se]CC#N)cc1 [Compound 18, Se,Se-bis-(cyanomethyl) benzene-1,4-bis-(carboselenoate)]	> 50 µM	*** (Potent antibacterial compounds: 1 µM < MIC ≤ 10 µM)	** (Moderate antibacterial compounds: 10 µM < MIC ≤ 50 µM)	** (Moderate antibacterial compounds: 10 µM < MIC ≤ 50 µM)	10 to 50 µM	
N#CC[Se]C(=O)c1cccc(C(=O)[Se]CC#N)c1 [Compound 19, Se,Se-bis-(cyanomethyl)benzene-1,3-bis-(carboselenoate)]		*** (Potent antibacterial compounds: 1 µM < MIC ≤ 10 µM)	** (Moderate antibacterial compounds: 10 µM < MIC ≤ 50 µM)	NA (Not antibacterial compounds: MIC ≥ 100 µM)	10 to 50 µM	> 50 µM
N#CC[Se]C(=O)c1cc(C(=O)[Se]CC#N)cc(C(=O)[Se]CC#N)c1 [Compound 20, Se,Se,Se-tris-(cyanomethyl) benzene-1,3,5-tris-(carboxyselenoate)]	> 50 µM			NA (Not antibacterial compounds: MIC ≥ 100 µM)	> 100 µM	
CC(=O)C[Se]C(=O)c1ccc(C(=O)[Se]CC(C)=O)cc1 [Compound 22, Se,Se-bis-(2-oxopropyl) benzene-1,4-bis-(carboselenoate)]	< 1 µM	**** (Very potent antibacterial compounds: MIC ≤ 1 µM)	*** (Potent antibacterial compounds: 1 µM < MIC ≤ 10 µM)	** (Moderate antibacterial compounds: 10 µM < MIC ≤ 50 µM)	50 to 100 µM	
CC(=O)C[Se]C(=O)c1cccc(C(=O)[Se]CC(C)=O)c1 [Compound 23, Se,Se-bis-(2-oxopropyl) benzene-1,3-bis-(carboselenoate)]	1 to 10 µM	**** (Very potent antibacterial compounds: MIC ≤ 1 µM)	*** (Potent antibacterial compounds: 1 µM < MIC ≤ 10 µM)	** (Moderate antibacterial compounds: 10 µM < MIC ≤ 50 µM)	> 100 µM	
CC(=O)C[Se]C(=O)c1cc(C(=O)[Se]CC(C)=O)cc(C(=O)[Se]CC(C)=O)c1 [Compound 24, Se,Se,Se-tris-(2-oxopropyl) benzene-1,3,5-tris-(carboxyselenoate)]	< 1 µM	**** (Very potent antibacterial compounds: MIC ≤ 1 µM)	**** (Very potent antibacterial compounds: MIC ≤ 1 µM)	** (Moderate antibacterial compounds: 10 µM < MIC ≤ 50 µM)	> 100 µM	
